For four molecules, EC50 results are on record in patent US10414811B2, “Protease-resistant lipidated GLP-1 analogs” (MEDIMMUNE LIMITED, priority 2015, dated 2019).

Read-outs that look alike come from different tables or passages of the source. Numbered stars: 1 amine (or outer) side, 2 acyl side, 3 side chain; on linkers, the order of the positions; unused ones are H or OH. Square brackets hold non-standard residues; d marks the D form. Side chains are listed from the residue outwards. Peptide text beside a SMILES is read from it. * marks the point of attachment. C18 diacid = O=C(O)CCCCCCCCCCCCCCCCC(=O)*; γGlu = O=C(O)[C@H](CCC(=O)[*:2])N[*:1]; αMeF = C[C@](N)(Cc1ccccc1)C(=O)O; αMeK = C[C@](N)(CCCCN)C(=O)O; Lauroyl = CCCCCCCCCCCC(=O)*; αMeS = C[C@](N)(CO)C(=O)O; AEEA = NCCOCCOCC(=O)O; Aib = CC(C)(N)C(=O)O

Format in all cases: cell-based
Assay [1] deals with T1, human GLP-1 receptor (GLP-1R) (Homo sapiens, UniProt P43220).
T1 construct: expressed in transfected cells
T1 sequence (P43220 24-463): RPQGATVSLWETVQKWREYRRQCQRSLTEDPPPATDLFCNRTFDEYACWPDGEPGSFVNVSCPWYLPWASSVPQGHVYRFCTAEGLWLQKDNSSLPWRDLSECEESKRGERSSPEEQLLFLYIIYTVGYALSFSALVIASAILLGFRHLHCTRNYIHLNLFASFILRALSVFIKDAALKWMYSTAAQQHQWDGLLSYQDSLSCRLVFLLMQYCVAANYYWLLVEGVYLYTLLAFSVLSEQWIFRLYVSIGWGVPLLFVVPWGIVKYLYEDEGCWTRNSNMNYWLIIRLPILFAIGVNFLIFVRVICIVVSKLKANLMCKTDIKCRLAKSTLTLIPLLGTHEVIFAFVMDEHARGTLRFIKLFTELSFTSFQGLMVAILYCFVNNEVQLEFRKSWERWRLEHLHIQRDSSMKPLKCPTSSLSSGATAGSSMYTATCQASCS
Put plainly: cAMP assay, human GLP-1R cells. An outline of the steps: (§1)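 Peptide-stimulated cAMP measured by two-step HTRF after a 30 min room-temperature incubation with receptor-expressing cells (hGLP-1R, hGIPR at 1×10^5 cells/ml; hGCGR at 2×10^5 cells/ml). Duplicate dilutions; EC50 from 4-parameter logistic fit of % Delta F.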

For assay [2], the target named is T2, human glucagon receptor (GCGR) (Homo sapiens, UniProt P47871).
T2 construct: expressed in transfected cells
T2 sequence (P47871 26-477): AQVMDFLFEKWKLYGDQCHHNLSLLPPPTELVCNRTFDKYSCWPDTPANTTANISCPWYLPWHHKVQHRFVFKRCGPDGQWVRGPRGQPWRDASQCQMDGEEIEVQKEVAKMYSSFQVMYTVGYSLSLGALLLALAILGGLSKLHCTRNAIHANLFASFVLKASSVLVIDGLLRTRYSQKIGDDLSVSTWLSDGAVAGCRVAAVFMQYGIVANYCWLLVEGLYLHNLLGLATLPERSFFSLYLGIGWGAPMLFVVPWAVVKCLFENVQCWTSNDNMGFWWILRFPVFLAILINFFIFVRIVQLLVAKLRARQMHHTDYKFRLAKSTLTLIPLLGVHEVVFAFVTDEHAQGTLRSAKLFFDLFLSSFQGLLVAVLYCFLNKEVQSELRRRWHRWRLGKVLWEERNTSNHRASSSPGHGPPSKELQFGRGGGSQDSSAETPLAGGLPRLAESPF
Kind of assay: cAMP assay, human GCGR cells. An outline of the steps:
as §1

The target in assay [3] is T3, human glucose-dependent insulinotropic peptide receptor (GIPR) (Homo sapiens, UniProt P48546).
T3 construct: expressed in transfected cells
T3 sequence (P48546 22-466): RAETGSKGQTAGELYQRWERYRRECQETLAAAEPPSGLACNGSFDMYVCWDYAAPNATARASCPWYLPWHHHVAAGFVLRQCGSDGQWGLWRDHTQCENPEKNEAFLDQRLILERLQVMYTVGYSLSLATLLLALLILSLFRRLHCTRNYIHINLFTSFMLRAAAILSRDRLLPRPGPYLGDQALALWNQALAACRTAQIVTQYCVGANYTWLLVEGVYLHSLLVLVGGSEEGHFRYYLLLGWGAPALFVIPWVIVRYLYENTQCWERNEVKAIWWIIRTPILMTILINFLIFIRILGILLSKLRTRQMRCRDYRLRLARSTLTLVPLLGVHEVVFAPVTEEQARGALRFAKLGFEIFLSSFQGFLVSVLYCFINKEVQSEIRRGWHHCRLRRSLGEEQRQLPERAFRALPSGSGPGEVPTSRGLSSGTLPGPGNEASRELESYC
Kind of assay: cAMP assay, human GIPR cells. An outline of the steps: as §1

The target in assay [4] is T4, GLP-1R (INS1e assay) (Rattus norvegicus, UniProt P32301).
T4 construct: endogenous in cells; host or cells: INS-1E cells
T4 sequence (P32301 22-463): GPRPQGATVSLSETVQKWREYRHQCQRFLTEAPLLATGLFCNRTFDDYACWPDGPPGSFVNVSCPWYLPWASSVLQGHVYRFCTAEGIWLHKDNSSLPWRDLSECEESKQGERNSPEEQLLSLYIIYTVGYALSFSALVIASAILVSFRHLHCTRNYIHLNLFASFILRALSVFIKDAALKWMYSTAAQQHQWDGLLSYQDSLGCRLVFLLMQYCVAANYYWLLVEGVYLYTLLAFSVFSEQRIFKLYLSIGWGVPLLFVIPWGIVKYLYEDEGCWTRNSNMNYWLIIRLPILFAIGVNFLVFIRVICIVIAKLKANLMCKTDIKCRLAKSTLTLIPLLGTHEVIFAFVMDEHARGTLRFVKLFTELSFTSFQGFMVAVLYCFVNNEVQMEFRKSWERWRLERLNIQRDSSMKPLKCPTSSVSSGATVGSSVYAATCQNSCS
Kind of assay: INS1e assay, cAMP activity at GLP-1R. An outline of the steps:
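cAMP was quantified by two-step HTRF, using anti-cAMP cryptate donor and cAMP-d2 acceptor, each diluted 1/20 in conjugate and lysis buffer. EC50 values of the synthetic peptides were derived from the cAMP readout.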

Where [5] appears, read: cAMP assay, first determination (n1), read-out: Primary assay EC50 GLP-1R n1.
[6] abbreviates: cAMP assay, second determination (n2), read-out: Primary assay EC50 GLP-1R n2.
The mark [7] stands for this setting: mean of n1 and n2, read-out: Mean pM GLP-1R.
[8] abbreviates: mono-lipidated peptides, mean of n1 and n2, read-out: INS1e assay EC50 Mean pM GLP-1R.
Where [9] appears, read: mono-lipidated peptides, replicate n1, read-out: INS1e assay EC50 GLP-1R n1.
The mark [10] stands for this setting: mono-lipidated peptides, replicate n2, read-out: INS1e assay EC50 GLP-1R n2.
[11] abbreviates: tris-lipidated peptides, mean of n1 and n2, read-out: Primary assay EC50 Mean pM GLP-1R.
Setting [12] is: tris-lipidated peptides, replicate n1, read-out: Primary assay EC50 GLP-1R n1.
Where [13] appears, read: tris-lipidated peptides, replicate n2, read-out: Primary assay EC50 GLP-1R n2.
The mark [14] stands for this setting: tris-lipidated peptides, mean of n1 and n2, read-out: INS1e assay EC50 Mean pM GLP-1R.
[15] abbreviates: tris-lipidated peptides, replicate n1, read-out: INS1e assay EC50 GLP-1R n1.
The mark [16] stands for this setting: tris-lipidated peptides, replicate n2, read-out: INS1e assay EC50 GLP-1R n2.

With `CC[C@H](C)[C@H](NC(=O)[C@H](Cc1ccccc1)NC(=O)[C@H](CCC(=O)O)NC(=O)[C@H](C)NC(=O)[C@H](C)NC(=O)[C@H](C)NC(=O)[C@H](CCC(=O)O)NC(=O)CNC(=O)[C@H](CCC(=O)O)NC(=O)[C@H](CC(C)C)NC(=O)[C@](C)(Cc1ccccc1)NC(=O)[C@H](CO)NC(=O)[C@](C)(CO)NC(=O)[C@@H](NC(=O)[C@H](CC(=O)O)NC(=O)[C@H](CO)NC(=O)[C@@H](NC(=O)[C@](C)(Cc1ccccc1)NC(=O)[C@H](CO)NC(=O)CNC(=O)[C@H](CCC(=O)O)NC(=O)C(C)(C)NC(=O)[C@@H](N)Cc1c[nH]cn1)[C@@H](C)O)C(C)C)C(=O)N[C@@H](CCCCNC(=O)COCCOCCNC(=O)COCCOCCNC(=O)CC[C@H](NC(=O)CCCCCCCCCCCCCCCCC(=O)O)C(=O)O)C(=O)N[C@@H](Cc1c[nH]c2ccccc12)C(=O)N[C@H](C(=O)N[C@H](C(=O)N[C@@H](CCC(=O)O)C(=O)NCC(=O)NCC(N)=O)C(C)C)C(C)C` [compound 69] (H-H[Aib]EGS[αMeF]TSDV[αMeS]S[αMeF]LEGEAAAEFIK([AEEA-AEEA-γGlu-C18 diacid])WVVEGG-NH2; N-terminus assumed), the EC50 was 66.1 pM in assay [1] (setting [5]); 39.9 pM in assay [1] (setting [6]); 53 pM in assay [1] (setting [7]); at least 25.5 nM in assay [2] (cAMP assay, first determination (n1), read-out: Primary assay EC50 Gluc-R (n1)); at least 25.5 nM in assay [2] (cAMP assay, second determination (n2), read-out: Primary assay EC50 Gluc-R (n2)); at least 25.5 nM in assay [3] (cAMP assay, first determination (n1), read-out: Primary assay EC50 GIP-R (n1)). Moreover, the EC50 in assay [3] (cAMP assay, second determination (n2), read-out: Primary assay EC50 GIP-R (n2)) is at least 25.5 nM; in assay [4] (setting [8]), 22100 pM; in assay [4] (setting [9]) it was 19200 pM; in assay [4] (setting [10]), 25000 pM.

On to `CCCCCCCCCCCC(=O)N[C@@H](CCC(=O)NCCOCCOCC(=O)NCCOCCOCC(=O)NCCCC[C@H](NC(=O)[C@H](Cc1ccc(O)cc1)NC(=O)[C@H](CO)NC(=O)[C@](C)(CO)NC(=O)[C@@H](NC(=O)[C@H](CC(=O)O)NC(=O)[C@H](CO)NC(=O)[C@@H](NC(=O)[C@](C)(Cc1ccccc1)NC(=O)[C@H](CO)NC(=O)CNC(=O)[C@H](CCC(=O)O)NC(=O)C(C)(C)NC(=O)[C@@H](N)Cc1c[nH]cn1)[C@@H](C)O)C(C)C)C(=O)N[C@@H](CCC(=O)O)C(=O)NCC(=O)N[C@@H](CCC(=O)O)C(=O)N[C@@H](C)C(=O)N[C@@H](C)C(=O)N[C@@](C)(CCCCN)C(=O)N[C@@H](CCCCNC(=O)COCCOCCNC(=O)COCCOCCNC(=O)CC[C@H](NC(=O)CCCCCCCCCCC)C(=O)O)C(=O)N[C@@H](Cc1ccccc1)C(=O)N[C@H](C(=O)N[C@@H](CCCCNC(=O)COCCOCCNC(=O)COCCOCCNC(=O)CC[C@H](NC(=O)CCCCCCCCCCC)C(=O)O)C(=O)N[C@@H](Cc1ccccc1)C(=O)N[C@H](C(=O)N[C@H](C(=O)N[C@@H](CCC(=O)O)C(=O)NCC(=O)NCC(N)=O)C(C)C)C(C)C)[C@@H](C)CC)C(=O)O` [compound 454] (H-H[Aib]EGS[αMeF]TSDV[αMeS]SYK([AEEA-AEEA-γGlu-Lauroyl])EGEAA[αMeK]K([AEEA-AEEA-γGlu-Lauroyl])FIK([AEEA-AEEA-γGlu-Lauroyl])FVVEGG-NH2), for which the EC50 came to 43.7 pM in assay [1] (setting [11]); 22.1 pM in assay [1] (setting [12]); 65.2 pM in assay [1] (setting [13]); 19.7 nM in assay [2] (tris-lipidated peptides, second replicate, read-out: Primary assay EC50 Gluc-R (n2)); 19.7 nM in assay [3] (tris-lipidated peptides, first replicate, read-out: Primary assay EC50 GIP-R (n1)); 5550 pM in assay [4] (setting [14]). Further, the EC50 was 4100 pM in assay [4] (setting [15]) and 6990 pM in assay [4] (setting [16]).

For the molecule `CCCCCCCCCCCC(=O)N[C@@H](CCC(=O)NCCOCCOCC(=O)NCCOCCOCC(=O)NCCCC[C@H](NC(=O)[C@H](C)NC(=O)[C@@H](NC(=O)[C@H](Cc1ccccc1)NC(=O)[C@H](CCCCNC(=O)COCCOCCNC(=O)COCCOCCNC(=O)CC[C@H](NC(=O)CCCCCCCCCCC)C(=O)O)NC(=O)[C@](C)(CCCCN)NC(=O)[C@H](C)NC(=O)[C@H](C)NC(=O)[C@H](CCC(=O)O)NC(=O)CNC(=O)[C@H](CCC(=O)O)NC(=O)[C@H](CC(C)C)NC(=O)[C@H](Cc1ccc(O)cc1)NC(=O)[C@H](CO)NC(=O)[C@H](CO)NC(=O)[C@H](CCCCNC(=O)COCCOCCNC(=O)COCCOCCNC(=O)CC[C@H](NC(=O)CCCCCCCCCCC)C(=O)O)NC(=O)[C@H](CC(=O)O)NC(=O)[C@H](CO)NC(=O)[C@@H](NC(=O)[C@](C)(Cc1ccccc1)NC(=O)[C@H](CO)NC(=O)CNC(=O)[C@H](CCC(=O)O)NC(=O)C(C)(C)NC(=O)[C@@H](N)Cc1c[nH]cn1)[C@@H](C)O)[C@@H](C)CC)C(=O)N[C@H](C(=O)N[C@H](C(=O)N[C@@H](CCC(=O)O)C(=O)NCC(=O)NCC(N)=O)C(C)C)C(C)C)C(=O)O` [compound 458] (H-H[Aib]EGS[αMeF]TSDK([AEEA-AEEA-γGlu-Lauroyl])SSYLEGEAA[αMeK]K([AEEA-AEEA-γGlu-Lauroyl])FIAK([AEEA-AEEA-γGlu-Lauroyl])VVEGG-NH2; N-terminus assumed), the EC50 worked out at 41.4 pM in assay [1] (setting [11]); 36.3 pM in assay [1] (setting [12]); 46.4 pM in assay [1] (setting [13]); 20 nM in assay [2] (tris-lipidated peptides, first replicate, read-out: Primary assay EC50 Gluc-R (n1)); 20 nM in assay [3] (tris-lipidated peptides, second replicate, read-out: Primary assay EC50 GIP-R (n2)); 3370 pM in assay [4] (setting [14]). Further, the EC50 in assay [4] (setting [15]) is 3070 pM; in assay [4] (setting [16]) it was 3670 pM.

In the case of `CC[C@H](C)[C@H](NC(=O)[C@](C)(Cc1ccccc1)NC(=O)[C@H](CCC(=O)O)NC(=O)[C@H](CCCCNC(=O)CC[C@H](NC(=O)CCCCCCCCCCCOc1ccc(C(=O)O)cc1)C(=O)O)NC(=O)[C@H](C)NC(=O)[C@H](C)NC(=O)[C@H](CCC(=O)O)NC(=O)CNC(=O)[C@H](CCC(=O)O)NC(=O)[C@H](CC(C)C)NC(=O)[C@](C)(Cc1ccccc1)NC(=O)[C@H](CO)NC(=O)[C@](C)(CO)NC(=O)[C@@H](NC(=O)[C@H](CC(=O)O)NC(=O)[C@H](CO)NC(=O)[C@@H](NC(=O)[C@](C)(Cc1ccccc1)NC(=O)[C@H](CO)NC(=O)CNC(=O)[C@H](CCC(=O)O)NC(=O)C(C)(C)NC(=O)[C@@H](N)Cc1c[nH]cn1)[C@@H](C)O)C(C)C)C(=O)N[C@@H](C)C(=O)N[C@@](C)(Cc1ccccc1)C(=O)N[C@H](C(=O)N[C@H](C(=O)N[C@@](C)(CCCCN)C(=O)NCC(=O)NCC(N)=O)C(C)C)C(C)C` [compound 137], the EC50 in assay [1] (setting [5]) was 6.6 pM; in assay [1] (setting [6]), 3.8 pM; in assay [1] (setting [7]) it was 5.2 pM; in assay [2] (Primary assay EC50 Gluc-R (n1), cAMP assay, first determination (n1)) it was at least 27 nM; in assay [2] (read-out: Primary assay EC50 Gluc-R (n2), cAMP assay, second determination (n2)) it was at least 27 nM; in assay [3] (Primary assay EC50 GIP-R (n1), cAMP assay, first determination (n1)), at least 27 nM. In addition, the EC50 is at least 27 nM in assay [3] (read-out: Primary assay EC50 GIP-R (n2), cAMP assay, second determination (n2)); 50 pM in assay [4] (setting [8]); 63.7 pM in assay [4] (setting [9]); 36.2 pM in assay [4] (setting [10]).
